Experimental data taken from patent US9080214B2, “Genetic markers for efficacy of iloperidone in the treatment of psychotic symptoms” (Vanda Pharmaceuticals, Inc., priority 2007, dated 2015).

Tested on: individuals diagnosed with schizophrenia
Assay: Change in PANSS-T by SNP genotype, patients on iloperidone 24 mg/day b.i.d. for 28 days (MMRM, LOCF)
Assay type: in vivo, human
Description: Earlier studies investigated an association between a polymorphism in the CNTF gene and iloperidone efficacy as well as associations between CYP2D6 and KCNQ1 genotypes and changes in QT interval following the administration of iloperidone. The present study involved the genotyping of DNA samples collected from 426 individuals diagnosed with schizophrenia in an attempt to identify additional SNPs associated with iloperidone efficacy. Each sample was genotyped at more than 500,000 SNP loci using the GeneChip® Human Mapping 500K Array Set (Affymetrix, Santa Clara, Calif.) and using assays developed in-house. Approximately half of the participants in the study were administered 24 mg/day of iloperidone, b.i.d., for 28 days. About 25% of the patients were administered ziprasidone. The remaining participants were administered a placebo. Three analyses of the PANSS-T were conducted. 1) A two-step approach where samples were randomly split into 2 groups of iloperidone-treated patients used to discover SNPs associated with changed in PANSS-T (Discovery phase) and a second group to confirm the 100 most significant SNPs (Confirmatory phase). 2) A one-step approach using the Last Observation Carried Forward (LOCF) PANSS-T data of all iloperidone-treated patients. For each SNP, the most parsimonious genetic model (e.g., homozygous for one allele v. all other genotypes [i.e., AA v. AB and BB], heterozygous v. homozygous [i.e., AB v. AA and BB]) was established with respect to iloperidone efficacy using a one-way analysis of variance (ANOVA). 3) A Mixed-effects Model Repeated Measures (MMRM) analysis was subsequently conducted using the best genetic model of each SNP in the MMRM model. MMRM analyses were also conducted with the PANSS subscales PANSS-P, PANSS-N, and PANSS-GP. The SNPs with a statistically significant association in all 3 analyses of PANSS-T, as well as the best of each analysis were considered significant findings and are listed below in Table 1. Results for each of these SNPs with the PANSS-T scales and with the three subscales PANSS-P, PANSS-N, and PANSS-GP are shown in Tables 2, 3, 4, and 5, respectively. As used herein, “greater iloperidone efficacy” means an improvement in PANSS-T score of at least about 20%. In the current study, this means an improvement of at least 13 points.

COc1cc(C(C)=O)ccc1OCCCN1CCC(c2noc3cc(F)ccc23)CC1 [iloperidone, 1-[4-[3-[4-(6-fluoro-1,2-benzisoxazol-3-yl)-1-piperidinyl]propoxy]-3-methoxyphenyl]ethanone]
mean of change in PANSS-T (SNP_A-1819750 (CREG1) genotype A_A): −18.13 | mean of change in PANSS-T (SNP_A-1819750 (CREG1) genotype A_B*): −10.74 | mean of change in PANSS-T (SNP_A-1819750 (CREG1) genotype B_B): −16.05 | mean of change in PANSS-T (SNP_A-1819750 (CREG1) genotype nonAB**): −16.72 | mean of change in PANSS-T (SNP_A-1860353 (RAP1B) genotype A_A**): −37.40 | mean of change in PANSS-T (SNP_A-1860353 (RAP1B) genotype A_B): −11.79 | mean of change in PANSS-T (SNP_A-1860353 (RAP1B) genotype B_B): −11.84 | mean of change in PANSS-T (SNP_A-1860353 (RAP1B) genotype nonAA*): −11.83 | mean of change in PANSS-T (SNP_A-1934663 genotype A_A): −18.67 | mean of change in PANSS-T (SNP_A-1934663 genotype A_B): −18.34 | mean of change in PANSS-T (SNP_A-1934663 genotype B_B*): −8.39 | mean of change in PANSS-T (SNP_A-1934663 genotype nonBB**): −18.40 | mean of change in PANSS-T (SNP_A-1973093 (KIAA0040) genotype A_A): −14.99 | mean of change in PANSS-T (SNP_A-1973093 (KIAA0040) genotype A_B*): −6.21 | mean of change in PANSS-T (SNP_A-1973093 (KIAA0040) genotype B_B): −16.73 | mean of change in PANSS-T (SNP_A-1973093 (KIAA0040) genotype nonAB**): −16.39 | mean of change in PANSS-T (SNP_A-1975928 (SLC2A9) genotype A_A): −13.09 | mean of change in PANSS-T (SNP_A-1975928 (SLC2A9) genotype A_B): −13.17 | mean of change in PANSS-T (SNP_A-1975928 (SLC2A9) genotype B_B*): 16.38 | mean of change in PANSS-T (SNP_A-1975928 (SLC2A9) genotype nonBB**): −13.11 | mean of change in PANSS-T (SNP_A-1987915 (GPR126) genotype A_A): −9.87 | mean of change in PANSS-T (SNP_A-1987915 (GPR126) genotype A_B): −9.61 | mean of change in PANSS-T (SNP_A-1987915 (GPR126) genotype B_B**): −17.29 | mean of change in PANSS-T (SNP_A-1987915 (GPR126) genotype nonBB*): −9.67 | mean of change in PANSS-T (SNP_A-2007721 (LOC58486) genotype A_A): −4.55 | mean of change in PANSS-T (SNP_A-2007721 (LOC58486) genotype A_B**): −22.64 | mean of change in PANSS-T (SNP_A-2007721 (LOC58486) genotype B_B): −9.55 | mean of change in PANSS-T (SNP_A-2007721 (LOC58486) genotype nonAB*): −9.52 | mean of change in PANSS-T (SNP_A-2044214 (HNT) genotype A_A): −15.71 | mean of change in PANSS-T (SNP_A-2044214 (HNT) genotype A_B*): −7.43 | mean of change in PANSS-T (SNP_A-2044214 (HNT) genotype B_B): −14.43 | mean of change in PANSS-T (SNP_A-2044214 (HNT) genotype nonAB**): −15.26 | mean of change in PANSS-T (SNP_A-2048427 (NPAS3) genotype A_A): −19.94 | mean of change in PANSS-T (SNP_A-2048427 (NPAS3) genotype A_B): −20.15 | mean of change in PANSS-T (SNP_A-2048427 (NPAS3) genotype B_B*): −9.20 | mean of change in PANSS-T (SNP_A-2048427 (NPAS3) genotype nonBB**): −20.12 | mean of change in PANSS-T (SNP_A-2070454 (NKX2-5) genotype A_A): −9.88 | mean of change in PANSS-T (SNP_A-2070454 (NKX2-5) genotype A_B): −10.39 | mean of change in PANSS-T (SNP_A-2070454 (NKX2-5) genotype B_B**): −18.31 | mean of change in PANSS-T (SNP_A-2070454 (NKX2-5) genotype nonBB*): −10.23 | mean of change in PANSS-T (SNP_A-2076797 (NUDT9P1) genotype A_A): −7.14 | mean of change in PANSS-T (SNP_A-2076797 (NUDT9P1) genotype A_B**): −18.73 | mean of change in PANSS-T (SNP_A-2076797 (NUDT9P1) genotype B_B): −6.04 | mean of change in PANSS-T (SNP_A-2076797 (NUDT9P1) genotype nonAB*): −6.61 | mean of change in PANSS-T (SNP_A-2103099 (HTR1A) genotype A_A): −17.43 | mean of change in PANSS-T (SNP_A-2103099 (HTR1A) genotype A_B*): −8.31 | mean of change in PANSS-T (SNP_A-2103099 (HTR1A) genotype B_B): −16.12 | mean of change in PANSS-T (SNP_A-2103099 (HTR1A) genotype nonAB**): −16.60 | mean of change in PANSS-T (SNP_A-2120958 genotype A_A): −13.95 | mean of change in PANSS-T (SNP_A-2120958 genotype A_B): −13.71 | mean of change in PANSS-T (SNP_A-2120958 genotype B_B*): 2.48 | mean of change in PANSS-T (SNP_A-2120958 genotype nonBB**): −13.85 | mean of change in PANSS-T (SNP_A-2170121 (C6) genotype A_A): −8.94 | mean of change in PANSS-T (SNP_A-2170121 (C6) genotype A_B**): −21.93 | mean of change in PANSS-T (SNP_A-2170121 (C6) genotype B_B): −11.50 | mean of change in PANSS-T (SNP_A-2170121 (C6) genotype nonAB*): −9.17 | mean of change in PANSS-T (SNP_A-2274533 (LZTS1) genotype A_A**): −15.95 | mean of change in PANSS-T (SNP_A-2274533 (LZTS1) genotype A_B): −6.04 | mean of change in PANSS-T (SNP_A-2274533 (LZTS1) genotype B_B): −6.21 | mean of change in PANSS-T (SNP_A-2274533 (LZTS1) genotype nonAA*): −6.08 | mean of change in PANSS-T (SNP_A-2283283 (XKR4) genotype A_A*): −3.30 | mean of change in PANSS-T (SNP_A-2283283 (XKR4) genotype A_B): −14.57 | mean of change in PANSS-T (SNP_A-2283283 (XKR4) genotype B_B): −15.66 | mean of change in PANSS-T (SNP_A-2283283 (XKR4) genotype nonAA**): −15.02 | mean of change in PANSS-T (SNP_A-2284243 (GRIA4) genotype A_A): −15.30 | mean of change in PANSS-T (SNP_A-2284243 (GRIA4) genotype A_B): −15.17 | mean of change in PANSS-T (SNP_A-2284243 (GRIA4) genotype B_B*): −3.30 | mean of change in PANSS-T (SNP_A-2284243 (GRIA4) genotype nonBB**): −15.22 | mean of change in PANSS-T (SNP_A-4204396 (CDH13) genotype A_A): −13.72 | mean of change in PANSS-T (SNP_A-4204396 (CDH13) genotype A_B): −14.04 | mean of change in PANSS-T (SNP_A-4204396 (CDH13) genotype B_B*): 4.89 | mean of change in PANSS-T (SNP_A-4204396 (CDH13) genotype nonBB**): −13.84 | mean of change in PANSS-T (SNP_A-4212785 (PPP1R3B) genotype A_A*): 25.90 | mean of change in PANSS-T (SNP_A-4212785 (PPP1R3B) genotype A_B): −13.66 | mean of change in PANSS-T (SNP_A-4212785 (PPP1R3B) genotype B_B): −13.56 | mean of change in PANSS-T (SNP_A-4212785 (PPP1R3B) genotype nonAA**): −13.60 | mean of change in PANSS-T (SNP_A-4230979 (ASB3) genotype A_A): −6.70 | mean of change in PANSS-T (SNP_A-4230979 (ASB3) genotype A_B): −8.77 | mean of change in PANSS-T (SNP_A-4230979 (ASB3) genotype B_B**): −18.82 | mean of change in PANSS-T (SNP_A-4230979 (ASB3) genotype nonBB*): −8.34 | mean of change in PANSS-T (SNP_A-4256833 (MLCK) genotype A_A): −15.19 | mean of change in PANSS-T (SNP_A-4256833 (MLCK) genotype A_B*): −6.20 | mean of change in PANSS-T (SNP_A-4256833 (MLCK) genotype B_B): −15.15 | mean of change in PANSS-T (SNP_A-4256833 (MLCK) genotype nonAB**): −15.15 | mean of change in PANSS-T (SNP_A-4258279 (RRM1) genotype A_A): −13.42 | mean of change in PANSS-T (SNP_A-4258279 (RRM1) genotype A_B*): −2.55 | mean of change in PANSS-T (SNP_A-4258279 (RRM1) genotype B_B): −14.72 | mean of change in PANSS-T (SNP_A-4258279 (RRM1) genotype nonAB**): −14.70
